Counter-ions that a name gives are not always drawn.
Biological target: T1, 5-HT1 -like receptor (Oryctolagus cuniculus, UniProt P49144)
T1 construct: contraction of the saphenous vein of New Zealand White rabbits; from tissue; host or cells: saphenous vein of New Zealand White rabbits
Test: Agonist-mediated contraction of rabbit saphenous vein
Parameters: species or system New Zealand White rabbits
Conditions: from plots of percentage 5-HT (1 μm) response against agonist concentration, read-out: pEC50 (-log10 EC50), agonist potency (converted)
Protocol: The activity of test compounds as agonists of the 5-HT1 -like receptor was measured in terms of their ability to mediate contraction of the saphenous vein of New Zealand White rabbits, using the procedure described in Arch. Pharm., 1990, 342, 111. Agonist potencies were calculated as -log10 EC50 (pEC50) values, from plots of percentage 5-HT (1 μm) response against the concentration of the agonist.

T1 sequence (P49144 whole entry): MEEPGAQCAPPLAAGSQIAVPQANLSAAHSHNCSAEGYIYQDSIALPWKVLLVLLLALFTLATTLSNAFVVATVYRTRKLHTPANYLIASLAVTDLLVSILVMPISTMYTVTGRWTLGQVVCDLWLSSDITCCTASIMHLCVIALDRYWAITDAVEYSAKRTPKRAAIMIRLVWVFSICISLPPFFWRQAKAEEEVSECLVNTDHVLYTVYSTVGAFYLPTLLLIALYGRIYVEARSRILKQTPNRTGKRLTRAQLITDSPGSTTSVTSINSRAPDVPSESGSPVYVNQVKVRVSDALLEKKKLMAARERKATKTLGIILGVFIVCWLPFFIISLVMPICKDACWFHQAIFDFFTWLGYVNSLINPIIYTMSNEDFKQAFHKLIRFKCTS

- EC50: ≤ 10 µM
SMILES: Cc1noc(-c2ccc3[nH]nc(CCN)c3c2)n1 [Example 2, 2-[5-(3-Methyl-1,2,4-oxadiazol-5-yl)-1H-indazol-3-yl])ethylamine hydrogen oxalate]
